Assays:
[1] = target: T1, D(2) dopamine receptor (Homo sapiens, UniProt P14416)
Description: Displacement of PPHT-red from SNAP-tagged human D2LR expressed in CHOK1 cell membranes assessed as dissociation rate constant by TR-FRET assay

[2] = target: T1, D(2) dopamine receptor; remark: listed apart in the source
Description: Displacement of PPHT-red from SNAP-tagged human D2LR expressed in CHOK1 cell membranes assessed as dissociation half-life by TR-FRET assay

[3] = target: T1, D(2) dopamine receptor; remark: listed apart in the source
Description: Displacement of PPHT-red from SNAP-tagged human D2LR expressed in CHOK1 cell membranes assessed as association rate constant by TR-FRET assay

[4] = target: T1, D(2) dopamine receptor; conditions: 10 min, read-out: INH
[5] = target: T1, D(2) dopamine receptor; remark: listed apart in the source
Description: Binding affinity to SNAP-tagged human D2LR expressed in CHOK1 cell membranes assessed as dissociation rate constant by TR-FRET assay

[6] = target: T1, D(2) dopamine receptor; remark: listed apart in the source
Description: Binding affinity to SNAP-tagged human D2LR expressed in CHOK1 cell membranes assessed as association rate constant by TR-FRET assay

T1 sequence (P14416 whole entry): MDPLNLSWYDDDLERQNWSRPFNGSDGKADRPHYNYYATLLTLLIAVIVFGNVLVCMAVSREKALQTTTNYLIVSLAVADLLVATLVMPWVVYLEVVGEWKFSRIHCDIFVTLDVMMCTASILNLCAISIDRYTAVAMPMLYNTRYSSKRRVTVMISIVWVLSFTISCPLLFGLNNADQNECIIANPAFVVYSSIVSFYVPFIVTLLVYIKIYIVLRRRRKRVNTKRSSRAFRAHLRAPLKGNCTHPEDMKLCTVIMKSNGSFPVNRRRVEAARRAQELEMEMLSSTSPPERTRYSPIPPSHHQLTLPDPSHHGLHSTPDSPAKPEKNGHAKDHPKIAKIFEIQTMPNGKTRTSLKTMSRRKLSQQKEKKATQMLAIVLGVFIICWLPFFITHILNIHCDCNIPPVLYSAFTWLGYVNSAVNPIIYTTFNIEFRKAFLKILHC

SMILES | Kdiss [1] [s⁻¹] | T1/2 [2] [s] | Ka [3] | inhibition at 10 µM [4] [%] | Kdiss [5] [s⁻¹] | Ka [6] [×10⁶ /M/min]
O=C(CCN1CCC(O)(c2ccc(Cl)cc2)CC1)c1ccc(F)cc1 | 0.0212 to 0.0325 | 25.8 to 34.2 | 1.03 to 1.33 ×10⁷ /M/min | – | – | –
O=C(CCCN1CCC(O)(c2ccc(Cl)cc2)CC1)c1cc(F)ccc1F | 0.019 to 0.0248 | 34.8 to 37.8 | 1.13 to 1.15 ×10⁷ /M/min | – | – | –
O=C(CCCN1CCC(O)(c2cccc(Cl)c2)CC1)c1ccc(F)cc1 | 0.0107 | 71.4 | 6.32 ×10⁸ /M/min | – | – | –
OC1(c2ccc(Cl)cc2)CCN(CC[C@H]2C[C@H]2c2ccc(F)cc2)CC1 (racemic) | 0.0228 | 30.6 | 4.47 ×10⁷ /M/min | – | – | –
OC1(c2ccc(Cl)cc2)CCN(CC/C=C/c2ccc(F)cc2)CC1 | 0.0127 | 44.4 | 6.39 ×10⁷ /M/min | – | – | –
O=C(CCCN1CCC2(c3ccc(Cl)cc3)CC2C1)c1ccc(F)cc1 (stereo unspecified) | 0.005 | 141 | 2.03 ×10⁹ /M/min | – | – | –
O=C(CCCN1CCC(O)(c2ccc(Cl)cc2)CC1)c1ccccc1 | 0.0187 | 40.2 | 6.33 ×10⁸ /M/min | – | – | –
OC1(c2ccc(Cl)cc2)CCN(CCC#Cc2ccc(F)cc2)CC1 | 0.0183 | 41.4 | 1.61 ×10⁷ /M/min | – | – | –
OC1(c2ccc(Cl)cc2)CCN(CCCOc2ccc(F)cc2)CC1 | 0.0152 | 48.6 | 1.22 ×10⁹ /M/min | – | – | –
O=C(CCCN1CCN(c2ccc(Cl)cc2)CC1)c1ccc(F)cc1 | 0.0133 | 53.4 | 2.86 ×10⁷ /M/min | – | – | –
O=C(CCCN1CCC(O)(c2ccccc2-c2ccccc2Cl)CC1)c1ccc(F)cc1 | 0.0137 | 53.4 | 3.25 ×10⁸ /M/min | – | – | –
Cc1ccccc1C(=O)CCCN1CCC(O)(c2ccc(Cl)cc2)CC1 | 0.0138 | 60.6 | 3.66 ×10⁸ /M/min | – | – | –
O=C(CCCN1CCC(O)(c2ccccc2)CC1)c1ccccc1 | 0.0118 | 58.8 | 2.28 ×10⁷ /M/min | – | – | –
O=C(CCCN1CCC(O)(c2ccccc2Cl)CC1)c1ccc(F)cc1 | 0.0193 | 36.6 | 3.54 ×10⁸ /M/min | – | – | –
O=C(CCCN1CCC(O)(c2ccc(Cl)cc2)CC1)c1ccc(F)cc1F | 0.0227 | 30.6 | 1.07 ×10⁷ /M/min | – | – | –
O=C(CCCN1CCC(O)(c2ccc(Cl)cc2Cl)CC1)c1ccc(F)cc1 | 0.0117 | 69 | 2.87 ×10⁸ /M/min | – | – | –
CN(C)c1ccc(C2(O)CCN(CCCC(=O)c3ccc(F)cc3)CC2)cc1 | 0.0208 | 33.6 | 1.64 ×10⁸ /M/min | – | – | –
O=C(CCCN1CCC(c2ccccc2)CC1)c1ccc(F)cc1 | 0.0118 | 59.4 | 8.99 ×10⁷ /M/min | 20 | – | –
O=C(CCCCN1CCC(O)(c2ccc(Cl)cc2)CC1)c1ccc(F)cc1 | 0.0275 to 0.0392 | 18 to 28.8 | 1.42 to 1.8 ×10⁸ /M/min | – | – | –
O=C(CCCN1CCC(O)(c2ccc(Cl)cc2)CC1)c1c(F)cccc1F | 0.0182 | 39.6 | 1.84 ×10⁷ /M/min | – | – | –
OC1(c2ccc(Cl)cc2)CCN(CCCCCc2ccc(F)cc2)CC1 | 0.0203 | 36 | 5.51 ×10⁷ /M/min | – | – | –
OC1(c2ccc(Cl)cc2)CCN(CCCC#Cc2ccc(F)cc2)CC1 | 0.0192 | 39 | 6.41 ×10⁷ /M/min | – | – | –
Cc1ccc(C2(O)CCN(CCCC(=O)c3ccc(F)cc3)CC2)cc1 | 0.0163 | 43.8 | 1 ×10⁹ /M/min | – | – | –
CCCN(CCc1ccccc1)C1CCc2c(O)cccc2C1 (racemic) | – | – | – | – | 0.00583 | 9.21
O=C(CCCN1CCC(O)(c2cc(Cl)cc(Cl)c2)CC1)c1ccc(F)cc1 | 0.00717 | 116 | 6.58 ×10⁸ /M/min | – | – | –
O=C(CCCN1CCC(O)(c2ccc(Cl)c(Cl)c2)CC1)c1ccc(F)cc1 | 0.007 | 100 | 2.95 ×10⁹ /M/min | – | – | –

SMILES | Kdiss [1] [s⁻¹] | T1/2 [2] [s] | Ka [3] | inhibition at 10 µM [4] [%] | Kdiss [5] [s⁻¹] | Ka [6] [×10⁶ /M/min]
O=C(CCCN1CCC(O)(c2ccc(Cl)cc2)CC1)c1cccc(F)c1 | 0.016 to 0.018 | 42 to 45.6 | 2.55 to 2.64 ×10⁷ /M/min | – | – | –
O=C(CCCN1CCC(O)(c2ccc(F)cc2)CC1)c1ccc(Cl)cc1 | 0.0128 | 54.6 | 4.17 ×10⁷ /M/min | – | – | –
OC(CCCN1CCC(O)(c2ccc(Cl)cc2)CC1)c1ccc(F)cc1 (stereo unspecified) | 0.0095 | 75 | 6.19 ×10⁶ /M/min | – | – | –
O=C(CCCN1[C@@H]2CC[C@H]1CC(O)(c1ccc(Cl)cc1)C2)c1ccc(F)cc1 (stereo partly specified) | 0.00317 | 215 | 3.68 ×10⁹ /M/min | – | – | –
O=C(CCCN1CC=C(c2ccc(Cl)cc2)CC1)c1ccc(F)cc1 | 0.0108 | 65.4 | 6.52 ×10⁷ /M/min | – | – | –
O=C(CCCN1CCC(O)(c2ccc(Cl)cc2)CC1)c1cccc(F)c1F | 0.0215 to 0.0283 | 24.6 to 36 | 3.01 to 3.24 ×10⁷ /M/min | – | – | –
OC1(c2ccc(Cl)cc2)CCN(CCCc2ccc(F)cc2)CC1 | 0.0222 to 0.0257 | 27.6 to 34.2 | 2.29 to 2.45 ×10⁷ /M/min | – | – | –
O=C(CCCN1CCC(O)(c2cccc(Cl)c2Cl)CC1)c1ccc(F)cc1 | 0.005 | 137 | 2.2 ×10⁹ /M/min | – | – | –
OC1(c2ccc(Cl)cc2)CCN(CCCCc2ccc(F)cc2)CC1 | 0.0185 | 37.8 | 1.57 ×10⁸ /M/min | – | – | –
O=C(CCCN1CCC(O)(c2ccc(Cl)cc2)CC1)c1cc(F)cc(F)c1 | 0.0153 | 47.4 | 4.25 ×10⁶ /M/min | – | – | –
O=C(CCCN1CCC(O)(c2c(Cl)cccc2Cl)CC1)c1ccc(F)cc1 | 0.0175 | 40.2 | 5.07 ×10⁸ /M/min | – | – | –
O=C(CCCN1CCC(c2ccc(Cl)cc2)CC1)c1ccc(F)cc1 | 0.014 | 51.6 | 4.31 ×10⁸ /M/min | – | – | –
COC1(c2ccc(Cl)cc2)CCN(CCCC(=O)c2ccc(F)cc2)CC1 | 0.0113 | 61.8 | 3.6 ×10⁸ /M/min | – | – | –
OC1(c2ccc(Cl)cc2)CCN(CC[C@H]2C[C@@H]2c2ccc(F)cc2)CC1 (racemic) | 0.0153 | 49.2 | 6.07 ×10⁸ /M/min | – | – | –
O=C(CCCN1CCC(O)(c2ccc(C(F)(F)F)cc2)CC1)c1ccc(F)cc1 | 0.0103 | 67.2 | 1.36 ×10⁹ /M/min | – | – | –
O=C(CCCN1CCC(O)(c2ccccc2)CC1)c1ccc(F)cc1 | 0.017 | 42.6 | 1.22 ×10⁸ /M/min | – | – | –
OC1(c2ccc(Cl)cc2)CCN(CCCSc2ccc(F)cc2)CC1 | 0.0165 | 44.4 | 4.99 ×10⁸ /M/min | – | – | –
O=C(CCCN1CCC(O)(c2ccc(Cl)cc2)CC1)c1ccc(F)c(F)c1 | 0.0172 | 45 | – | – | – | –
O=C(CCCN1CCC(O)(c2ccc(Cl)cc2)CC1)c1ccc(Cl)cc1 | 0.0117 | 60 | 1.38 ×10⁸ /M/min | – | – | –
OC1(c2ccc(Cl)cc2)CCN(CC/C=C\c2ccc(F)cc2)CC1 | 0.0208 | 34.8 | 3.35 ×10⁷ /M/min | – | – | –
O=C(CCCN1CCC(O)(c2ccc(Cl)cc2)CC1)c1ccccc1F | 0.0173 | 41.4 | – | – | – | –
O=C(CCCN1CCC(O)(c2ccc(Cl)cc2)CC1)c1ccccc1Cl | 0.0185 | 45.6 | 3.16 ×10⁸ /M/min | – | – | –
OC1(c2ccc(Cl)cc2)CCN(CC#Cc2ccc(F)cc2)CC1 | 0.016 | 46.2 | 3.37 ×10⁶ /M/min | – | – | –
O=C(CCCN1CCC(O)(c2ccc(F)cc2)CC1)c1ccc(F)cc1 | 0.013 | 55.2 | 2.61 ×10⁸ /M/min | – | – | –
O=C(CCCN1CCC(O)(c2cc(Cl)ccc2Cl)CC1)c1ccc(F)cc1 | 0.00933 | 76.2 | 5.29 ×10⁸ /M/min | – | – | –

From ChEMBL document CHEMBL4414605 (J Med Chem, 2019)
